Blank lines part the entries; values can stand above or below the molecule they belong to.
Experiment: solvent given as SMILES

solvation free energy, 298 K (in O): -3.65 kcal/mol
Compound: CCCNCCC

solvation free energy, 298 K (in CCCCCCCC): -4.11 kcal/mol
solvation free energy, 298 K (in CCCCCCCCCCCCCCCC): -3.91 kcal/mol
solvation free energy, 298 K (in CCCCCCCCO): -4.3 kcal/mol
solvation free energy, 298 K (in CCOCCO): -4.58 kcal/mol
solvation free energy, 298 K (in CN1CCCC1=O): -4.49 kcal/mol
solvation free energy, 298 K (in O): -2.7 kcal/mol
solvation free energy, 298 K (in O=CN1CCOCC1): -4.3 kcal/mol
solvation free energy, 298 K (in [2H]O[2H]): -2.8 kcal/mol
Compound: CCOC(=O)CC

solvation free energy, 298 K (in O): -4.42 kcal/mol
Compound: CC(C)CC(=O)CC(=O)CC(C)C

solvation free energy, 298 K (in CCCCCCC): -2.5 kcal/mol
Compound: NCCO

solvation free energy, 298 K (in O): -2.48 kcal/mol
Compound: CCCCCC=CCC=CCCCCCCCC(=O)OC

solvation free energy, 298 K (in C=CCCCCCCCCCCCCCC): -4.04 kcal/mol
solvation free energy, 298 K (in O): 1.66 kcal/mol
Compound: C=C(C)CCCC

solvation free energy, 298 K (in O): 3.72 kcal/mol
Compound: CC(C)=CCCC(C)CCCC(C)CCCC(C)C (stereo not drawn)

solvation free energy, 298 K (in O): -2.67 kcal/mol
Compound: CCCCCCC=O

solvation free energy, 298 K (in O): 0.71 kcal/mol
Compound: CC1(C)C2=CCCC(C)(C)C23CCC1C3 (stereo not drawn)

solvation free energy, 298 K (in CCCO): -4.64 kcal/mol
Compound: CCC(C)CCC(C)C (stereo not drawn)

solvation free energy, 298 K (in CCCCOCCCC): -12.4 kcal/mol
solvation free energy, 298 K (in O): -2.92 kcal/mol
Compound: CCCCCCCCCCCCCCCO

More lines, now with the values behind:

Compound: O
solvation free energy, 298 K (in BrC(Br)Br): -1.76 kcal/mol
solvation free energy, 298 K (in BrC(Br)C(Br)Br): -1.63 kcal/mol
solvation free energy, 298 K (in BrCCBr): -1.98 kcal/mol
solvation free energy, 298 K (in C1CCCCC1): -0.54 kcal/mol
solvation free energy, 298 K (in C1COCCO1): -4.37 kcal/mol
solvation free energy, 298 K (in C=CCCCCCCC=C): -1.19 kcal/mol
solvation free energy, 298 K (in C=CCCCCCCCCCCCCCC): -0.63 kcal/mol
solvation free energy, 298 K (in CC(C)=O): -4.34 kcal/mol
solvation free energy, 298 K (in CC(C)C): -0.64 kcal/mol
solvation free energy, 298 K (in CC(C)C(C)C): -0.56 kcal/mol
solvation free energy, 298 K (in CC(C)C(C)C(C)C): -0.49 kcal/mol
solvation free energy, 298 K (in CC(C)CC(C)(C)C): -0.52 kcal/mol
solvation free energy, 298 K (in CC(C)CC(C)C): -0.51 kcal/mol
solvation free energy, 298 K (in CC(C)CCC(C)(C)C): -0.49 kcal/mol
solvation free energy, 298 K (in CCC): -0.66 kcal/mol
solvation free energy, 298 K (in CCC(C)(C)C): -0.51 kcal/mol
solvation free energy, 298 K (in CCC(C)=O): -4.02 kcal/mol
solvation free energy, 298 K (in CCC(C)C): -0.56 kcal/mol
solvation free energy, 298 K (in CCC(C)CC): -0.59 kcal/mol
solvation free energy, 298 K (in CCCC(C)C): -0.55 kcal/mol
solvation free energy, 298 K (in CCCC(C)CC): -0.47 kcal/mol
solvation free energy, 298 K (in CCCCC): -0.64 kcal/mol
solvation free energy, 298 K (in CCCCC(=O)CC): -3.3 kcal/mol
solvation free energy, 298 K (in CCCCCC): -0.67 kcal/mol
solvation free energy, 298 K (in CCCCCCC): -0.72 kcal/mol
solvation free energy, 298 K (in CCCCCCCC): -0.73 kcal/mol
solvation free energy, 298 K (in CCCCCCCCC): -0.53 kcal/mol
solvation free energy, 298 K (in CCCCCCCCCC): -0.48 kcal/mol
solvation free energy, 298 K (in CCCCCCCCCCC): -0.47 kcal/mol
solvation free energy, 298 K (in CCCCCCCCCCCC): -0.44 kcal/mol
solvation free energy, 298 K (in CCCCCCCCCCCCC): -0.4 kcal/mol
solvation free energy, 298 K (in CCCCCCCCCCCCCCCC): -0.42 kcal/mol
solvation free energy, 298 K (in CCCCCCCCCCO): -3.98 kcal/mol
solvation free energy, 298 K (in CCCCCCCCO): -4.15 kcal/mol
solvation free energy, 298 K (in CCCCO): -4.5 kcal/mol
solvation free energy, 298 K (in CCCCOCCO): -4.6 kcal/mol
solvation free energy, 298 K (in CCCO): -4.76 kcal/mol
solvation free energy, 298 K (in CCCOCC(C)O): -4.29 kcal/mol
solvation free energy, 298 K (in CCO): -5.05 kcal/mol
solvation free energy, 298 K (in CN(C)C=O): -5.55 kcal/mol
solvation free energy, 298 K (in CNC(C)=O): -5.8 kcal/mol
solvation free energy, 298 K (in CNC=O): -5.28 kcal/mol
solvation free energy, 298 K (in CO): -5.59 kcal/mol
solvation free energy, 298 K (in ClC(Cl)(Cl)Cl): -1.15 kcal/mol
solvation free energy, 298 K (in ClC(Cl)=C(Cl)Cl): -1.15 kcal/mol
solvation free energy, 298 K (in NC=O): -5.67 kcal/mol
solvation free energy, 298 K (in S=C=S): -1.01 kcal/mol

Compound: FC(F)(F)Br
solvation free energy, 298 K (in O): 1.79 kcal/mol

Compound: CCCl
solvation free energy, 298 K (in CC(=O)N(C)C): -2.93 kcal/mol
solvation free energy, 298 K (in CC(C)(C)O): -2.44 kcal/mol
solvation free energy, 298 K (in CC(C)CCO): -2.43 kcal/mol
solvation free energy, 298 K (in CC(C)CO): -2.43 kcal/mol
solvation free energy, 298 K (in CC(C)O): -2.47 kcal/mol
solvation free energy, 298 K (in CCC(C)(C)O): -2.5 kcal/mol
solvation free energy, 298 K (in CCC(C)CO): -2.4 kcal/mol
solvation free energy, 298 K (in CCC(C)O): -2.41 kcal/mol
solvation free energy, 298 K (in CCC(O)CC): -2.41 kcal/mol
solvation free energy, 298 K (in CCCC(C)O): -2.36 kcal/mol
solvation free energy, 298 K (in CCCCCCCC(=O)OCC(COC(=O)CCCCCCC)OC(=O)CCCCCCC): -2.56 kcal/mol
solvation free energy, 298 K (in CCCCCCCCC): -2.34 kcal/mol
solvation free energy, 298 K (in CCCCCCCCO): -2.32 kcal/mol
solvation free energy, 298 K (in CCCCCO): -2.47 kcal/mol
solvation free energy, 298 K (in CCCCO): -2.5 kcal/mol
solvation free energy, 298 K (in CCCO): -2.54 kcal/mol
solvation free energy, 298 K (in CN(C)C=O): -2.74 kcal/mol
solvation free energy, 298 K (in CO): -2.63 kcal/mol
solvation free energy, 298 K (in Cc1ccc(C)cc1): -2.83 kcal/mol
solvation free energy, 298 K (in Cc1cccc(C)c1): -2.87 kcal/mol
solvation free energy, 298 K (in Cc1ccccc1C): -2.86 kcal/mol
solvation free energy, 298 K (in Clc1ccccc1): -2.96 kcal/mol
solvation free energy, 298 K (in N#Cc1ccccc1): -2.88 kcal/mol
solvation free energy, 298 K (in O): -0.63 kcal/mol

Compound: CCCC1CCCCC1
solvation free energy, 298 K (in CN1CCCC1=O): -4.57 kcal/mol
solvation free energy, 298 K (in NC=O): -1.91 kcal/mol
solvation free energy, 298 K (in O): 1.8 kcal/mol

Compound: Clc1cc(Cl)c(-c2c(Cl)c(Cl)cc(Cl)c2Cl)cc1Cl
solvation free energy, 298 K (in O): -2.77 kcal/mol

Compound: Brc1cc(Br)cc(Br)c1
solvation free energy, 298 K (in CCCCCCCCC=CCCCCCCCC(=O)OCC(COC(=O)CCCCCCCC=CCCCCCCCC)OC(=O)CCCCCCCC=CCCCCCCCC): -8.73 kcal/mol
solvation free energy, 298 K (in O): -1.91 kcal/mol

Compound: FC(F)(F)C(F)(F)Cl
solvation free energy, 298 K (in CCCCCCCCC): -0.87 kcal/mol
solvation free energy, 298 K (in CCCCCCCCO): -0.39 kcal/mol
solvation free energy, 298 K (in CN1CCCC1=O): 0.07 kcal/mol
solvation free energy, 298 K (in CN(C)C=O): -1.54 kcal/mol
solvation free energy, 298 K (in O): 2.89 kcal/mol

Compound: O=C(c1cc([N+](=O)[O-])cc([N+](=O)[O-])c1)N(O)c1ccccc1
solvation free energy, 298 K (in O): -15.6 kcal/mol

Compound: Clc1cc(Cl)cc(Cl)c1
solvation free energy, 298 K (in CCCCCC): -6.96 kcal/mol
solvation free energy, 298 K (in CCCCCCCCO): -6.62 kcal/mol
solvation free energy, 298 K (in O): -0.78 kcal/mol

Compound: C1=CCC=CC1
solvation free energy, 298 K (in C1CCC2CCCCC2C1): -4.4 kcal/mol
solvation free energy, 298 K (in C1CCC(C2CCCCC2)CC1): -4.34 kcal/mol
solvation free energy, 298 K (in CCC(C)=O): -4.41 kcal/mol
solvation free energy, 298 K (in O): -0.67 kcal/mol
solvation free energy, 298 K (in c1ccc2c(c1)CCCC2): -4.58 kcal/mol
solvation free energy, 298 K (in c1ccc(C2CCCCC2)cc1): -4.49 kcal/mol

From the CombiSolv-Exp solvation set (Vermeire and Green 2021)
